Measured values: US10981902B2 (Merck Sharp & Dohme Corp., priority 2017, dated 2021)

These compounds were tested against T1, human M4 muscarinic acetylcholine receptor (Homo sapiens, UniProt P08173) (assay: human FLIPR-based M4 PAM assay (calcium mobilization, CHO-K1 cells with human M4 receptor and Gαqi5)). Details: inflection point (IP) of dose response curve, acetylcholine added at 20% of maximum response, read-out: M4 FLIPPR Hu IP.
T1 construct: expressed in transfected cells; host or cells: CHO-K1
T1 sequence (P08173 1-479): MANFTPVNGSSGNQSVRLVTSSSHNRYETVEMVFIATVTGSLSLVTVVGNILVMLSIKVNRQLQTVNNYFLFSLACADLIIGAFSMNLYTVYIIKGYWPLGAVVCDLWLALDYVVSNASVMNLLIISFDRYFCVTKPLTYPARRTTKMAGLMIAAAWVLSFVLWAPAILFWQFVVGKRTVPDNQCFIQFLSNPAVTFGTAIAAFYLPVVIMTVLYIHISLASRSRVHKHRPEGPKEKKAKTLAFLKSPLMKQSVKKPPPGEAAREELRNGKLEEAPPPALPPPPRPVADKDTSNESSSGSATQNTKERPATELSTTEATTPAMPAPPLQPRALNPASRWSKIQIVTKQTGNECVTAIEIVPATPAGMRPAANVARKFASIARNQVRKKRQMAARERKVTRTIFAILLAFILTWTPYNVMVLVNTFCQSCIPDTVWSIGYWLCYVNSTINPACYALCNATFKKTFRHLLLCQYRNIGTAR
Assay type: cell-based
Experimental: In a typical experiment the M4 muscarinic acetylcholine receptor modulating activity of the compounds of the present invention was determined in accordance with the following experimental method. CHO-K1 cells stably transfected with human M4 receptor and chimeric G-protein Gαqi5 (Coward P, et al., Analytical Biochemistry, 270:242-248 (1999)) are thawed from liquid N2 storage, resuspended in growth medium, plated in black, clear bottom 384 well plates, and incubated 16-20 hours at 37° C., 5% CO2. On the day of assay, growth medium is removed, the cells are washed 2 times with wash buffer, and cells are incubated in dye loading buffer at 37° C., 5% CO2 for ˜1 hour. Following dye loading the cell plates are placed in a FLIPR Tetra instrument and while monitoring dye fluorescence (excitation […]), 10 uL of test substance at increasing concentrations is added, and fluorescence values are recorded for 4 min. Next, 10 uL of acetylcholine is added (final concentration calculated so as to achieve 20% of the maximum acetycholine response), and the fluorescence reading is continued for 3.5 min. In some cases, a third addition of acetylcholine (final concentration calculated to achieve 70% of the maximal acetylcholine response) is performed. The resulting dose response curves are fit to a 4 parameter logistic equation and the final result is determined as the inflection point (IP) of the curve
CHO-K1 cells stably transfected with human M4 receptor and chimeric G-protein Gαqi5 are thawed from liquid N2 storage, resuspended in growth medium, plated in black, clear bottom 384 well plates, and incubated 16-20 hours at 37° C., 5% CO2.
On the day of assay, growth medium is removed, the cells are washed 2 times with wash buffer, and cells are incuabted in dye loading buffer at 37° C., 5% CO2 for ˜1 h. Following dye loading the cell plates are placed in a FLIPR Tetra instrument and while monitoring dye fluorescence ([…]), 10 uL of test substance at increasing concentrations is added, and fluorescence values are recorded for 4 min. Next, 10 uL of acetylcholine is added (final concentration calculated so as to achieve 20% of the maximum acetycholine response), and the fluorescence reading is continued for 3.5 min. In some cases, a third addition of acetylcholine (final concentration calculated to achieve 70% of the maximal acetylcholine response) is performed.

Row | EC50 [nM] | Compound
1 | 45 | COc1cc2ccc(-c3nc(C)ccc3-c3cnc(Cc4ccc(F)cc4)o3)cc2nn1 [Example 54, 2-(4-fluorobenzyl)-5-(2-(3-methoxycinnolin-7-yl)-6-methylpyridin-3-yl)oxazole]
2 | 8 | N#Cc1ccc(-c2cnc(CC3CCCC3)o2)c(N2CCn3ccnc3C2)n1 [Example 55, 5-(2-(cyclopentylmethyl)oxazol-5-yl)-6-(5,6-dihydroimidazo[1,2-a]pyrazin-7(8H)-yl)picolinonitrile]
3 | 11 | Cc1ccc(-c2cnc(CC3CCCC3)o2)c(N2CCn3ccnc3C2)n1 [Example 56, 2-(cyclopentylmethyl)-5-(2-(5,6-dihydroimidazo[1,2-a]pyrazin-7(8H)-yl)-6-methylpyridin-3-yl)oxazole]
4 | 117 | Clc1ccc(-c2cnc(CC3CCCC3)o2)c(N2CCn3ccnc3C2)n1 [Example 57, 5-(6-chloro-2-(5,6-dihydroimidazo[1,2-a]pyrazin-7(8H)-yl)pyridin-3-yl)-2-(cyclopentylmethyl) oxazole]
5 | 17 | N#Cc1ccc(-c2cnc(CC3CCCC3)o2)c(N2CCn3ccnc3C2)n1 [Example 58, 5-(2-(cyclopentylmethyl)oxazol-5-yl)-6-(5,6-dihydroimidazo[1,2-a]pyrazin-7(8H)-yl) picolinonitrile]
6 | 459 | Cc1ccc(-c2cnc(Cc3ccc(F)cc3)o2)c(N2CCn3ccnc3C2)n1 [Example 59, 5-(2-(5,6-dihydroimidazo[1,2-a]pyrazin-7(8H)-yl)-6-methylpyridin-3-yl)-2-(4-fluorobenzyl)oxazole]
7 | 79 | Cc1cn2ccc(-c3nc(C#N)ccc3-c3cnc(CC4CC4)o3)cc2n1 [Example 60, 5-(2-(cyclopropylmethyl)oxazol-5-yl)-6-(2-methylimidazo[1,2-a]pyridin-7-yl)picolinonitrile]
8 | 61 | CC(C)Cc1ncc(-c2ccc(C#N)nc2-c2ccc3cccnc3c2)o1 [Example 61, 5-(2-isobutyloxazol-5-yl)-6-(quinolin-7-yl)picolinonitrile]
9 | 104 | N#Cc1ccc(-c2cnc(CC3CC3)o2)c(-c2ccc3cccnc3c2)n1 [Example 62, 5-(2-(cyclopropylmethyl)oxazol-5-yl)-6-(quinolin-7-yl)picolinonitrile]
10 | 94 | N#Cc1ccc(-c2cnc(CC3CC3)o2)c(-c2ccn3ccnc3c2)n1 [Example 63, 5-(2-(cyclopropylmethyl)oxazol-5-yl)-6-(imidazo[1,2-a]pyridin-7-yl)picolinonitrile]
11 | 49 | Cc1nc(CC2CCCC2)oc1-c1ccc(C#N)nc1-c1ccc2cccnc2c1 [Example 64, 5-(2-(cyclopentylmethyl)-4-methyloxazol-5-yl)-6-(quinolin-7-yl)picolinonitrile]
12 | 96 | CC(C)(C)CCc1ncc(-c2ccc(C#N)nc2-c2ccc3cccnc3c2)o1 [Example 65, 5-(2-(3,3-dimethylbutyl)oxazol-5-yl)-6-(quinolin-7-yl)picolinonitrile]
13 | 42 | CC(C)(C)CCc1ncc(-c2ccc(C#N)nc2-c2ccn3ccnc3c2)o1 [Example 66, 5-(2-(3,3-dimethylbutyl)oxazol-5-yl)-6-(imidazo[1,2-a]pyridin-7-yl) picolinonitrile]
14 | 136 | N#Cc1ccc(-c2cnc(CCC(F)(F)F)o2)c(-c2ccn3ccnc3c2)n1 [Example 67, 6-(imidazo[1,2-a]pyridin-7-yl)-5-(2-(3,3,3-trifluoropropyl)oxazol-5-yl)picolinonitrile]
15 | 231 | N#Cc1ccc(-c2cnc(CC(O)C3CC3)o2)c(-c2ccc3cccnc3c2)n1 (stereo not shown) [Example 68, 5-(2-(2-cyclopropyl-2-hydroxyethyl)oxazol-5-yl)-6-(quinolin-7-yl)picolinonitrile]
16 | 41 | N#Cc1ccc(-c2cnc(CC(F)C3CC3)o2)c(-c2ccc3cccnc3c2)n1 (stereo not shown) [Example 69, 5-(2-(2-cyclopropyl-2-fluoroethyl)oxazol-5-yl)-6-(quinolin-7-yl)picolinonitrile]
